The target of assay [1] is SARS-CoV-2 Spike protein RBD and human ACE2 (Severe acute respiratory syndrome coronavirus 2, UniProt P0DTC2). The format is binding, SARS-CoV-2; human.
Assay [2] has as its target RBD domain of S protein (Severe acute respiratory syndrome coronavirus 2, UniProt P0DTC2). Briefly: biochemical. The class given is binding, SARS-CoV-2.
The test system of assay [3] is SARS-CoV-2 pseudovirus. As to the kind of experiment: organism not typed. The format is cell-based. To be noted: read-out: EC50 (S).
Assay [4] deals with VSV-G pseudotyped lentivirus. As to the kind of experiment: microbe, parasite or virus in culture. To be noted: read-out: EC50 (VSVG). The class given is cell-based.

pEC50, pKd: −log10 of the molar value. Structures can show the parent of a compound that is named as a salt. Where two headings read alike, the source gives them in different places.

In general, pKd refers to −log10 of the Kd, conventionally taken in molar units. By pEC50 is commonly meant −log10 of the EC50, conventionally taken in molar units. Take Teicoplanin: the “Blocking of binding of SARS-CoV-2 RBD to ACE2 in vitro” value in assay [1] is on record as “fail to block binding”. Besides, the negative logarithm of the Kd (pKd) in assay [2] (read-out: KD (equilibrium dissociation constant)) was 3.17. Besides, the pEC50 in assay [3] and in assay [4] was less than 4.00 each time.

`CN[C@H](CC(C)C)C(=O)N[C@H]1C(=O)N[C@@H](CC(N)=O)C(=O)N[C@H]2C(=O)N[C@H]3C(=O)N[C@H](C(=O)N[C@H](C(=O)O)c4cc(O)cc(O)c4-c4cc3ccc4O)[C@H](O)c3ccc(c(Cl)c3)Oc3cc2cc(c3O[C@@H]2O[C@H](CO)[C@@H](O)[C@H](O)[C@H]2O[C@H]2C[C@](C)(N)[C@H](O)[C@H](C)O2)Oc2ccc(cc2Cl)[C@H]1O` [Vancomycin hydrochloride] had a pKd in assay [2] of 2.80. The pEC50 in assay [3] (48 h) and in assay [4] (Lentivirus) was less than 4.00 each time.

The values above are taken from PMC9808420 (Biomedicine & Pharmacotherapy, 2023).
